This is an account of results in PubChem BioAssay AID652199 (Broad Institute, 2013).

SMILES strings stand for the structures. Calls of active or inactive are those of the source.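 Rule for the calls: active = half-maximal inhibitory concentration AC50 at or below 30 µM; inactive = the rest, including compounds with no fitted curve.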

For orientation: AC50 means the midpoint of the concentration-response curve, whichever way the signal moves.

This test deals with Protein disulfide-isomerase (Homo sapiens) (UniProt P07237). The experiment in a line: inhibition of PDI-catalysed insulin clumping – biochemical, turbidity, dry powder samples, set 3, confirmation (AID 652199). The following applies: absorbance 650 nm, 90 min.
Protein disulfide-isomerase (Homo sapiens), sequence (P07237 whole entry, looked up): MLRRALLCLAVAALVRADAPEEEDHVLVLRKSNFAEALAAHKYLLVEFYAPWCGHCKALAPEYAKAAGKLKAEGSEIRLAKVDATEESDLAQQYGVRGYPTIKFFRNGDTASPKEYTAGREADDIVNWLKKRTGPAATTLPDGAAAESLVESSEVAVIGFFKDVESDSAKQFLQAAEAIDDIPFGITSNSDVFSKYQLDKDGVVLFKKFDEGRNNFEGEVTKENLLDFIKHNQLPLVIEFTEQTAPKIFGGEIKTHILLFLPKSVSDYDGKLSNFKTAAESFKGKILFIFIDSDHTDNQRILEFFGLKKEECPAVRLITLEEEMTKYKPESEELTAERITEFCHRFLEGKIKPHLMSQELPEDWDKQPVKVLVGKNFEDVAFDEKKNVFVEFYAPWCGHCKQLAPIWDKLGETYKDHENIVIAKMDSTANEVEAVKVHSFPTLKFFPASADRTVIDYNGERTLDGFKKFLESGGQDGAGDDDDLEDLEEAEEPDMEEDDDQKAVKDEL
For `CC(C)OC(=O)C1(CCOc2ccccc2)CCN(Cc2ccc(O)c(Cl)c2)CC1`, the AC50 was 0.7 µM. The same measure for `CCOC(=O)C1(CCOc2ccccc2)CCN(C(=O)c2ccc(O)c(Cl)c2)CC1`: 1.5 µM; for `C/C1=C\[C@@H](O)C(C)(C)CCCC2(C)OC2C[C@@H]1OC(=O)c1ccc(O)cc1` (some centres not stated): 1.5 µM. For the compound `CCOC(=O)c1c(CN2CCN(CCO)CC2)n(-c2ccccc2)c2cc(Br)c(O)cc12`, the AC50 was 3 µM. `CCOC(=O)C1(CCOc2ccccc2)CCN(Cc2ccc(O)cc2)CC1`: the AC50 is 20 µM. `CC(C)(C)OC(=O)C1(CCOc2ccccc2)CCN(Cc2ccc(O)c(Cl)c2)CC1`: the AC50 was 0.7 µM.

With `CCOC(=O)C1(CCOc2ccccc2)CCN(Cc2ccc(OC)c(Cl)c2)CC1`, the AC50 was > 30 µM (inactive). To `O=C(NC1CCCC1)C1(CCOc2ccccc2)CCN(Cc2ccc(O)c(Cl)c2)CC1` belongs 3 µM; to `CCN(C)C(=O)C1(CCOc2ccccc2)CCN(Cc2ccc(O)c(Cl)c2)CC1`, 3 µM. The same measure for `O=C(Nc1ccccc1)C1(CCOc2ccccc2)CCN(Cc2ccc(O)c(Cl)c2)CC1`: 30 µM; for `C/C1=C\C[C@H](OC(=O)c2ccc(O)cc2)/C(C)=C/[C@@H](O)C(C)(C)CCC1`: 5 µM.

As to `CCOC(=O)C1(CCOc2ccccc2)CCN(Cc2ccc(O)c(Cl)c2)CC1`, the AC50 was 0.4 µM.
